Measurements from PubChem BioAssay (NCI).
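A five-concentration, 48-hour dose response in 96-well plates underlies each endpoint, interpolated linearly between surrounding concentrations. The concentration for 50% growth inhibition is given as GI50. TGI: total growth inhibition.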

Legend:
Test in all cases: growth of human tumour cells (NCI), 48 h; in the data active = GI50 below about 0.43 µM; inactive = the rest
A549 NSCLC = test system: A549 NSCLC
CAKI-1 renal = test system: CAKI-1 renal
HOP-92 NSCLC = test system: HOP-92 NSCLC
KM12 colon = test system: KM12 colon
MCF7 breast = test system: MCF7 breast
NCI-H522 lung = test system: NCI-H522 lung
OVCAR-5 ovarian = test system: OVCAR-5 ovarian
OVCAR-8 ovarian = test system: OVCAR-8 ovarian
TK-10 renal = test system: TK-10 renal
UO-31 renal = test system: UO-31 renal

COc1cccc(C2SC(C)C(=O)N2NC(=O)C(O)c2ccccc2)c1 (stereo not given)
inactive: GI50 (A549 NSCLC) > 100 µM | GI50 (CAKI-1 renal) > 100 µM | GI50 (HOP-92 NSCLC) > 100 µM | GI50 (KM12 colon) > 100 µM | GI50 (MCF7 breast) > 100 µM | GI50 (NCI-H522 lung) > 100 µM | GI50 (OVCAR-5 ovarian) > 100 µM | GI50 (OVCAR-8 ovarian) > 100 µM | GI50 (TK-10 renal) > 100 µM | GI50 (UO-31 renal) > 100 µM
> 100 µM: TGI (A549 NSCLC) | TGI (CAKI-1 renal) | TGI (HOP-92 NSCLC) | TGI (KM12 colon) | TGI (MCF7 breast) | TGI (NCI-H522 lung) | TGI (OVCAR-5 ovarian) | TGI (OVCAR-8 ovarian) | TGI (TK-10 renal) | TGI (UO-31 renal)

COc1ccc(NC(=O)c2ccc(C(F)(F)F)nc2Nc2ccc(Cl)cc2C)cc1Cl
13.1 µM: TGI (MCF7 breast)
24.3 µM: TGI (OVCAR-8 ovarian)
20.6 µM: TGI (A549 NSCLC)
28 µM: TGI (KM12 colon)
inactive: GI50 (A549 NSCLC) 5.39 µM | GI50 (CAKI-1 renal) 4.41 µM | GI50 (HOP-92 NSCLC) 2.9 µM | GI50 (KM12 colon) 6.03 µM | GI50 (MCF7 breast) 2.42 µM | GI50 (NCI-H522 lung) 3.53 µM | GI50 (OVCAR-5 ovarian) 9.62 µM | GI50 (OVCAR-8 ovarian) 7.67 µM | GI50 (TK-10 renal) 17.3 µM | GI50 (UO-31 renal) 4.39 µM
17.8 µM: TGI (UO-31 renal)
18.9 µM: TGI (CAKI-1 renal)
41.6 µM: TGI (TK-10 renal)
6.79 µM: TGI (HOP-92 NSCLC)
15.4 µM: TGI (NCI-H522 lung)
25.4 µM: TGI (OVCAR-5 ovarian)

CN1C(c2ccccc2)CC(=NO)CC1c1ccccc1 (stereo not given)
> 100 µM: TGI (A549 NSCLC) | TGI (CAKI-1 renal) | TGI (HOP-92 NSCLC) | TGI (KM12 colon) | TGI (NCI-H522 lung) | TGI (OVCAR-5 ovarian) | TGI (OVCAR-8 ovarian) | TGI (TK-10 renal) | TGI (UO-31 renal)
inactive: GI50 (A549 NSCLC) 88.1 µM | GI50 (KM12 colon) 49.1 µM | GI50 (MCF7 breast) 44.3 µM | GI50 (NCI-H522 lung) 39.7 µM | GI50 (OVCAR-8 ovarian) 54.1 µM | GI50 (TK-10 renal) 66.5 µM
